Data as given in patent US9738591B2, “Antimicrobial compounds” (priority 2009, dated 2017).
≈ marks a conversion by molar mass, not a printed value.

Experiments:
[1] = tested on: S. epidermidis ATCC 12228; experiment: MIC and MBC by broth microdilution; assay type: cell-based; details: Staphylococcus epidermidis, ATCC12228, CA-MHB, two independent replicates
E. coli NCTC 10418 = experiment: Broth microdilution MIC and MBC, expanded testing range; assay type: cell-based; details: Escherichia coli, NCTC10418; MHB, growth-method inoculum, range 1024 to 0.5 μg/ml
Protocol: (§1) The method used was based on CLSI protocols for broth microdilution testing of these species. As recommended by CLSI, inocula were prepared by direct colony suspension, and the media used were cation-adjusted Mueller Hinton broth (CA-MHB) for Staphylococcus spp. and CA-MHB containing 5% lysed horse blood (CA-MHB+LHB) for Streptococcus spp. Briefly, 24 h blood agar plate (BA) cultures of Staphylococcus aureus strains NCTC 6571, ATCC 29213, ATCC 33592 (MRSA) and NCTC 10442 (MRSA), Staphylococcus epidermidis ATCC 29971, Staphylococcus xylosus ATCC 29971, Streptococcus pneumoniae strains ATCC 49619 and ATCC 6305, and Streptococcus pyogenes strains NCTC 8191 and NCTC 8302 were used to prepare 0.5 McFarland suspensions in saline. Two 640 μg/ml working stocks of TSB007 were prepared from a fresh master stock, one in CA-MHB for testing against the Staphylococcus spp. and the other in CA-MHB+LHB for testing against Streptococcus spp. The working stocks were further diluted 1/10 in these broths for adding to microtitre trays to test MICs of 32, 16, 8, 4, 2, 1, 0.5, 0.25, 0.125 and 0.06 μg/ml.
(§2) The wells of two 96-well microtitre trays (one for Staphylococcus spp. and one for Streptococcus spp.) were filled with 100 μl of the appropriate broth, except for the first column. The last column, a sterility control containing no TSB007 or inoculum, was filled with an additional 100 μl broth. Then 100 μl of the 64 μg/ml TSB007 solution was added to the first two columns, the contents of column 2 was mixed, then 100 μl of this was used in two-fold serial dilutions along the rest of the tray except the last two columns. The final 100 μl was discarded. […] Finally, to the first 11 wells of one row per strain, 100 μl of a 10^−2 dilution (in the appropriate broth) of the 0.5 McFarland suspension was added. The microtitre trays were then incubated at 35° C. for 24 h before the MICs were read visually. Wells were further subcultured (10 μl drop onto BA then incubated at 35° C. for 24 h) and colonies subsequently counted to determine minimum bactericidal concentrations (MBCs). The concentration of the initial inoculum was confirmed on BA by counting colonies from 2×10 μl spots of 10^−5 dilutions of the 0.5 McFarland suspensions. Testing was performed on two separate occasions.
(§3) The method described above, with some modifications, was used to determine the MIC and MBC for S. aureus NCTC 6571 and E. coli NCTC 10418. Concentrations of the compound were previously too low to determine the MBC of this S. aureus strain. Modifications were the use of Mueller-Hinton broth (MHB) instead of CA-MHB, the preparation of bacterial inoculum by the growth method instead of direct colony suspension, and the use of more concentrated working stocks and test concentrations of TSB007. […]

S. aureus NCTC 6571 = experiment: as above; assay type: cell-based; details: Staphylococcus aureus, NCTC6571; MHB, growth-method inoculum, range 1024 to 0.5 μg/ml
Protocol: as §1, §2, §3

[2] = tested on: Listeria monocytogenes NCTC 7973; experiment: Disk diffusion; details: 10 mg/ml, 20 μl

**Q.** For `O=C(O)c1ccc(/C=C/c2cc(/C=C/c3ccc(C(=O)O)cc3)cc(/C=C/c3ccc(C(=O)O)cc3)c2)cc1` [TSB007], which MIC ([1]; 35° C., 24 h) is on record?
**A.** Its MIC is 2 to 4 µg/mL (≈ 3.87 to 7.74 µM).

**Q.** And the MBC [1]?
**A.** Its MBC is > 32 µg/mL.

**Q.** And the MBC (E. coli NCTC 10418)?
**A.** The MBC was > 1020 µg/mL.

**Q.** What about the MIC (E. coli NCTC 10418) of the same compound?
**A.** The MIC was 512 µg/mL (≈ 991 µM).

**Q.** And the MBC (S. aureus NCTC 6571)?
**A.** Its MBC is 128 to 256 µg/mL (≈ 248 to 496 µM).

**Q.** What about the MIC (S. aureus NCTC 6571) of the same compound?
**A.** Its MIC is 2 µg/mL (≈ 3.87 µM).

**Q.** And the “Zone diameters, 24 h TSB007” value ([2]; 24 h)?
**A.** The value was 9 trim.

**Q.** And the “Zone diameters, 48 h TSB007” value ([2]; 48 h)?
**A.** The value was 9 trim.

**Q.** What about the “Zone diameters, Repeat Results” value ([2]; repeat, value printed with '?') of the same compound?
**A.** The value was 15? trim.
